Experimental data taken from PubChem BioAssay AID602443 (National Center for Advancing Translational Sciences (NCATS), 2012).
Values after ≈ are worked out from the molar mass of the structure shown.

Tested on: aqueous kinetic solubility
Test: High Content Assay for Compounds that inhibit the Assembly of the Perinucleolar Compartment: Aqueous Kinetic Solubility
Excerpt: The perinucleolar compartment (PNC) is a non-membrane-bound nuclear subdomain that is associated with but structurally distinct from the nucleolus. The PNC is a heritable trait, in which the number of PNCs per cell in daughter cells often mimics that of their mother cells. The PNC is heterogeneous in shape, is stable through interphase, disassembles during mitosis, and reassembles in early G1. The PNC is concentrated with newly synthesized RNA polymerase III (pol III) RNAs (MRP RNA, RNAse P H1 RNA, hY RNAs[hY1, 2, 5], Alu RNA, and SRP [7SL] RNA) and RNA binding proteins (nucleolin, PTB, CUG-BP, KSRP, Raver1, Raver2, and Rod).
Extensive in vitro studies have shown that the PNC is unique to tumor cells and preferentially forms in tumor cells derived from solid tissues. Examination of cancer cell lines from various origins and malignant capacities has shown that PNC prevalence correlates with the malignancy of tumors and has the potential to be developed as a pan-cancer prognostic marker.
This bioassay provides profiling data on aqueous kinetic solubility (PBS @ pH 7.4) of some of the lead compounds developed for this project.
NIH Chemical Genomics Center [NCGC]
NIH Molecular Libraries Probe Centers Network [MLPCN] […]
5. Concentration of the supernatant was determined by LC-UV or LC-MS/MS

**Q.** For N=c1c2c(-c3ccccc3)c(-c3ccccc3)n(Cc3ccccc3)c2ncn1C1CCC(O)CC1 (stereo unspecified), which solubility is on record?
**A.** The solubility was 150 µM (≈ 71.2 µg/mL).
